Reference: patent US7405228B2, “Antibacterial cyano-(substituted)-methylenepiperidinophenyl oxazolidinones targeting multiple ribonucleoprotein sites” (Wockhardt Limited, priority 2002, dated 2008)
≈ marks a conversion by molar mass, not a printed value. Like-named read-outs stand apart in the source and are kept apart here.

Assays:
[1] = tested on: linezolid-resistant S. pneumoniae; conditions: Adis R&D Insight report Document 013296; cited from earlier work
[2] = tested on: SPN 744 LNZR; assay: MIC determination, linezolid resistant SPN 744 LNZR; type: cell-based; conditions: Streptococcus pneumoniae
Experimental: (§1) Infecting doses of organisms given by intraperitoneal route in 5% hog gastric mucin were 10^3-10^4 CFU (colony forming units)/animal for SPN 6303 and 10^8 CFU/animal for MRSA-32. In case of MRSA-32, Linezolid was administered by oral route, 1 and 4 h post infection, BID (twice a day) for 1 day and for SPN 6303 BID for 2 days. […] MICs of Methicillin Resistant Staphylococcus aureus-32 Linezolid resistant (MRSA-32 LNZR), S. pneumoniae 744 Linezolid resistant (SPN 744 LNZR) and parent Linezolid sensitive strains MRSA-32 and SPN 6303 were determined for Linezolid by NCCLS agar dilution method.
(§2) Cultures were further diluted 1:10 in Mueller Hinton broth. Using Denley's mutipoint inoculator, 10^4 cells were deposited on Mueller Hinton agar (Difco) containing range of 2 fold dilutions of test compounds. […] MIC is defined as minimum drug concentration that inhibits test organisms. For determining MIC of test compounds against Streptococcus pneumoniae, Mueller Hinton agar containing 5% sheep blood was employed.

[3] = tested on: Enterococcus faecalis 416 strain; assay: Killing effect study (bactericidal vs bacteriostatic activity); type: cell-based; conditions: initial count 10^6 CFU/ml; for Final Count (112 h): E. faecalis 416, 5 mcg/ml compound, Table 4
Experimental: The initial inoculum was adjusted to 10^6 CFU (colony forming units) per ml. The flasks were kept on shaker in close cabinet at 35° C. Aliquots were drawn at 112 hours and cell count was determined to assess the extent of loss in viability.

[4] = tested on: Enterococcus faecalis 416; assay: Mutant Prevention Concentration (MPC) determination; type: cell-based; design: unit not given here; conditions: E. faecalis 416, 10^9 CFU/plate, TSA, 48 hours at 35° C.
Experimental: Clinical isolate Enterococcus faecalis 416 was spirally plated on Tryptic Soya agar (TSA) plate containing various 2 fold dilutions each of a representative compound of the invention and Linezolid so as to give 10^9 CFU/plate. After incubation at 35° C. for 48 hours, the CFU on each plate was determined. MPC is defined as minimum concentration of drug that prevents mutant colonies on respective antibiotic containing plate.

[5] = tested on: SPN 49619; assay: MIC determination, linezolid sensitive SPN 49619; type: cell-based; conditions: Streptococcus pneumoniae; linezolid sensitive strain, Table 3
[6] = tested on: E. faecium 367 LNZR; assay: MIC determination, linezolid resistant E. faecium 367 LNZR; type: cell-based; conditions: Enterococcus faecium
Experimental: (§3) E. faecium ATCC 19434 strain at a cell density of 10^6/ml was inoculated in Mueller Hinton broth medium containing Linezolid at a concentration of 5 and 7.5 mcg/ml. The stationary culture was incubated at 37° C. and inspected at every 24 hours to assess the formation of turbidity due to the onset of bacterial growth. […] A 50 microliter sample of turbid flask was plated on Mueller Hinton agar medium incorporated with linezolid at 7.5 mcg/ml. The agar plates were incubated for 48 hours at 37° C. for the formation of discrete colonies of linezolid-resistant strain of E. faecium (E. faecium 367 LNZR). MICs of resistant mutant E. faecium 367 LNZR and parent strain E. faecium ATCC 19434 were determined for linezolid by NCCLS method.
as §2

[7] = tested on: Enterococcus faecalis 416 strain; assay: Propensity to resistance development (resistant colonies per plate); type: cell-based; conditions: E. faecalis 416 at 10^8 CFU, compound concentration 5 mcg/ml, 48 hours at 35° C.
Experimental: Enterococcus faecalis 416 strain at 10^8 CFU density level was spirally plated on Mueller Hinton agar containing 5 mcg/ml each of linezolid and representative compound of the invention. Plates were incubated at 35° C. for 48 hours and number of resistant colonies developed in presence of respective compounds were counted by automated counter.

[8] = tested on: S. aureus MRSA-32 LNZR; assay: MIC determination, linezolid resistant S. aureus MRSA-32 LNZR; type: cell-based; conditions: Staphylococcus aureus
Experimental: as §1, §2

[9] = tested on: MRSA 032; assay: MIC determination, linezolid sensitive MRSA 032 (MRSA-32); type: cell-based; conditions: Staphylococcus aureus
Experimental: as §1, §2

[10] = tested on: S. pneumoniae ATCC 6303 LR; assay: MIC determination, linezolid-resistant mutant S. pneumoniae ATCC 6303 LR; type: cell-based; conditions: Streptococcus pneumoniae, ATCC6303, read-out: Linezolid MIC
[11] = tested on: E. faecium ATCC 19434; assay: MIC determination, parent strain E. faecium ATCC 19434; type: cell-based; conditions: Enterococcus faecium, ATCC19434; Linezolid sensitive E. faecium ATCC 19434, NCCLS method
Experimental: as §3

[12] = tested on: S. pneumoniae ATCC 6303; assay: MIC determination, linezolid sensitive S. pneumoniae ATCC 6303 (SPN 6303); type: cell-based; conditions: Streptococcus pneumoniae, ATCC6303
Experimental: as §1

[13] = tested on: MRSA-32; assay: ED50 in mouse systemic infection model, MRSA-32; type: in vivo; conditions: MRSA-32 parent strain
Experimental: as §1

[14] = tested on: S. aureus Smith; assay: MIC determination, S. aureus Smith; type: cell-based; conditions: Staphylococcus aureus, read-out: Linezolid MIC
[15] = tested on: MRSA 032 LR; assay: MIC determination, linezolid-resistant mutant MRSA 032 LR; type: cell-based; conditions: Staphylococcus aureus, read-out: Linezolid MIC
[16] = tested on: MRSA-32 LNZR; assay: ED50 in mouse systemic infection model, MRSA-32 LNZR; type: in vivo
[17] = tested on: SPN 6303; assay: ED50 in mouse systemic infection model, SPN 6303; type: in vivo; conditions: SPN 6303 parent strain
Experimental: as §1

[18] = tested on: S. aureus Smith LR; assay: MIC determination, linezolid-resistant mutant S. aureus Smith LR; type: cell-based; conditions: Staphylococcus aureus, read-out: Linezolid MIC
[19] = tested on: SPN 744 LNZR; assay: ED50 in mouse systemic infection model, SPN 744 LNZR; type: in vivo
[20] = read-out: MIC E. faecium 367 LNZR
[21] = 24 h, read-out: MIC MRSA 32 LNZR

Row | SMILES | MIC ([2]; read-out: MIC SPN744 LNZR) [µg/mL] | Final Count (112 h) [3] | MPC [4] | MIC [5] [µg/mL] | MIC [6, 20] [µg/mL] | No. of colonies/plate [7] | MIC [8, 21] [µg/mL] | MIC ([9]; read-out: MIC MRSA 32) [µg/mL] | further results
1 | O=C([C@@H](O)CO)N1CC=C(c2c(F)cc(N3C[C@H](COc4ccon4)OC3=O)cc2F)CC1 [AZD 2563] | – | – | – | – | – | – | – | – | activity against linezolid-resistant S. pneumoniae [1]: ineffective
2 | COC(=S)NC[C@H]1CN(c2ccc(N3CCC(=CC#N)CC3)c(F)c2)C(=O)O1 [Example 46, (S)-N-{3-[4-(4-cyanomethylidene-piperidin-1-yl)-3-fluorophenyl]-2-oxo-oxazolidin-5-ylmethyl}-methylthiocarbamate] | 6.25 (≈ 15.5 µM) | <10^2 CFU/ml | 1.56 | 0.2 (≈ 0.494 µM) | 1.56 (≈ 3.86 µM) | 0 | 6.25 (≈ 15.5 µM) | 0.2 (≈ 0.494 µM) | –
3 | N#CC=C1CCN(c2ccc(N3C[C@H](CNC(N)=S)OC3=O)cc2F)CC1 [Example 51, (S)-N-{3-[4-(4-cyanomethylidene-piperidin-1-yl)-3-fluorophenyl]-2-oxo-oxazolidin-5-ylmethyl}-thiocarbamide] | 3.12 (≈ 8.01 µM) | <10^2 CFU/ml | 1.56 | 0.2 (≈ 0.514 µM) | 1.56 (≈ 4.01 µM) | 0 | 3.12 (≈ 8.01 µM) | 0.4 (≈ 1.03 µM) | –
4 | C#CCC(C#N)=C1CCN(c2ccc(N3C[C@H](CNC(C)=O)OC3=O)cc2F)CC1 [Example 96, (S)-N-{3-[4-(4-(1-cyano-3-yne-butylidene)-piperidin-1-yl)-3-fluorophenyl]-2-oxo-oxazolidin-5-ylmethyl}-acetamide] | 6.25 (≈ 15.2 µM) | <10^2 CFU/ml | 6.25 | 0.8 (≈ 1.95 µM) | 3.12 (≈ 7.6 µM) | 0 | 12.5 (≈ 30.5 µM) | 0.8 (≈ 1.95 µM) | –
5 | CC(=O)NC[C@H]1CN(c2ccc(N3CCOCC3)c(F)c2)C(=O)O1 [Linezolid, reference compound] | 25 (≈ 74.1 µM) | 10^8 CFU/ml | 12.5 | 0.8 (≈ 2.37 µM) | > 25 | 1.2 × 10^2 | > 25 | 1.56 (≈ 4.62 µM) | MIC [10]: 25 µg/mL (≈ 74.1 µM); MIC [2]: 25 µg/mL (≈ 74.1 µM); MIC [11]: 1.56 µg/mL (≈ 4.62 µM); final count after killing effect study ([3]; E. faecalis 416, 5 mcg/ml): 10^9 CFU/ml; MIC ([12]; S. pneumoniae ATCC 6303, Table 1, read-out: Linezolid MIC): 0.8 µg/mL (≈ 2.37 µM); MIC ([12]; parent Linezolid sensitive SPN 6303, NCCLS agar dilution method, read-out: MIC): 0.8 µg/mL (≈ 2.37 µM); ED50 [13]: 5 mg/kg; MIC [14]: 1.56 µg/mL (≈ 4.62 µM); MIC [6]: 25 µg/mL (≈ 74.1 µM); MIC [15]: 25 µg/mL (≈ 74.1 µM); MIC [8]: 50 µg/mL (≈ 148 µM); ED50 [16]: 100 mg/kg; ED50 [17]: 75 mg/kg; MIC [18]: 50 µg/mL (≈ 148 µM); MIC [9]: 1.56 µg/mL (≈ 4.62 µM); MIC ([9]; read-out: Linezolid MIC): 1.56 µg/mL (≈ 4.62 µM); ED50 [19]: > 200 mg/kg
